Target: T1, EBP (Homo sapiens, UniProt Q15125)
T1 construct: HEK293T cells were utilized as the source of EBP enzyme; endogenous in cells; host or cells: HEK293T
Assay: EBP Functional Assay (EBP immunoaffinity LC-MS assay)
Format: biochemical
Conditions: HEK293T cells as source of EBP enzyme; substrate zymosterol-d5, 37° C. for 4 h; percent conversion to dehydrolathosterol-d5 by LC-APCI MRM MS
Experimental: The EBP immunoaffinity (IA) LC-MS assay measures the potency of small molecule inhibitors of EBP by quantifying their concentration-dependent changes in the enzyme's substrate and product using liquid chromatography atmospheric pressure chemical ionization multiple reaction monitoring mass spectrometry (LC-APCI MRM MS). HEK293T cells were utilized as the source of EBP enzyme. The enzyme was incubated with the small molecule inhibitors at variable concentrations for 30 min. Deuterated form of EBP substrate, zymosterol-d5 (Avanti Polar Lipids, Cat #700068P-1 mg), was then added and the plate was incubated at 37° C. for 4 h. Finally, the sterol isomers were extracted and injected to LC-APCI MRM MS. MRM transition used for the quantification for both zymosterol and […] (substrate and product of EBP enzymatic reaction, respectively) is 372.3-203.2, CE 30 and DP 80 in positive ion mode. Percent conversion of the zymosterol-d5 to dehydrolathosterol-d5 was used to derive IC50 curves. Tasin-1 (1′-[(4-Methoxyphenyl)sulfonyl]-4-methyl-1,4′-bipiperidine, CAS 792927-06-1) was used as the reference small molecule inhibitor.
Percent conversion versus the compound concentration data were fit to the following 4-parameter logistic model to generate IC50 curves: […]

T1 sequence (Q15125 whole entry): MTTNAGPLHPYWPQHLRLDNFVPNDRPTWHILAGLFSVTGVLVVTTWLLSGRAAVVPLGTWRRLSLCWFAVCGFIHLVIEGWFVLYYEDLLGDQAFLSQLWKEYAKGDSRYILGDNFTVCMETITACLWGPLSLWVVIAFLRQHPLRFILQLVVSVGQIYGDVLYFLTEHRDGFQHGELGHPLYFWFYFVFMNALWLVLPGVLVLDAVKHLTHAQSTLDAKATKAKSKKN

| IC50 [nM] | Compound |
| --- | --- |
| 100 to 250 | O=S(=O)(c1cc(F)cc(F)c1)N1CCC2(CC1)C[C@@H](N1CC3(COC3)C1)CO2 (single isomer, unassigned) [Example 119b] |
| 250 to 1500 | CC1(O)CCN([C@@H]2COC3(CCN(S(=O)(=O)c4cc(C#N)ccc4F)CC3)C2)CC1 (single isomer, unassigned) [Example 141] |
| 250 to 1500 | Cc1cc(C(F)(F)F)ncc1S(=O)(=O)N1CCC2(CC1)CC(N1CCOCC1)CO2 (centres unmarked) [Example 4] |
| 250 to 1500 | O=S(=O)(c1ccc(F)cc1)N1CCC2(CC1)CC(N1CC3(COC3)C1)CO2 (centres unmarked) [Example 8] |
| 250 to 1500 | N#Cc1ccc(S(=O)(=O)N2CCC3(CC2)CC(N2CC4(COC4)C2)CO3)c(Cl)c1 (centres unmarked) [Example 9] |
| 100 to 250 | COc1ccc(S(=O)(=O)N2CCC3(CCC(N4CC5(COC5)C4)C3)CC2)cc1F (centres unmarked) [Example 10] |
| 100 to 250 | N#Cc1cccc(S(=O)(=O)N2CCC3(CCC(N4CC5(COC5)C4)C3)CC2)c1 (centres unmarked) [Example 11] |
| < 100 | O=S(=O)(c1ccc(F)cc1)N1CCC2(CCC(N3CC4(COC4)C3)C2)CC1 (centres unmarked) [Example 12] |
| 100 to 250 | N#Cc1cc(F)cc(S(=O)(=O)N2CCC3(CCC(N4CC5(COC5)C4)C3)CC2)c1 (centres unmarked) [Example 13] |
| 250 to 1500 | O=S(=O)(c1ccc(OC(F)F)cc1)N1CCC2(CC1)CC(N1CCCCC1)CO2 (centres unmarked) [Example 14, 8-((4-(Difluoromethoxy)phenyl)sulfonyl)-3-(piperidin-1-yl)-1-oxa-8-azaspiro[4.5]decane] |
| 250 to 1500 | Cc1cc(F)c(S(=O)(=O)N2CCC3(CC2)CC(N2CCOCC2)CO3)c(F)c1 (centres unmarked) [Example 16] |
| 250 to 1500 | Cc1cc(C(F)(F)F)ccc1S(=O)(=O)N1CCC2(CC1)CC(N1CCOCC1)CO2 (centres unmarked) [Example 17, 8-((2-Methyl-4-(trifluoromethyl)phenyl)sulfonyl)-3-morpholino-1-oxa-8-azaspiro[4.5]decane] |
| 100 to 250 | Cc1ccc(F)c(S(=O)(=O)N2CCC3(CC2)CC(N2CCOCC2)CO3)c1 (centres unmarked) [Example 18, 8-((2-Fluoro-5-methylphenyl)sulfonyl)-3-morpholino-1-oxa-8-azaspiro[4.5]decane] |
| 250 to 1500 | O=S(=O)(c1cc(F)ccc1F)N1CCC2(CC1)CC(N1CCOCC1)CO2 (centres unmarked) [Example 19, 8-((2,5-Difluorophenyl)sulfonyl)-3-morpholino-1-oxa-8-azaspiro[4.5]decane] |
| 250 to 1500 | COc1ccc(S(=O)(=O)N2CCC3(CC2)CC(N2CCOCC2)CO3)c(C)n1 (centres unmarked) [Example 20, 8-((6-Methoxy-2-methylpyridin-3-yl)sulfonyl)-3-morpholino-1-oxa-8-azaspiro[4.5]decane] |
| 100 to 250 | Cc1cc(S(=O)(=O)N2CCC3(CCC(N4CCOCC4)C3)CC2)n(C)n1 (centres unmarked) [Example 21, 4-(8-((1,3-Dimethyl-1H-pyrazol-5-yl)sulfonyl)-8-azaspiro[4.5]decan-2-yl)morpholine] |
| 100 to 250 | O=S(=O)(c1ccc(OC(F)F)cc1)N1CCC2(CCC(N3CCOCC3)C2)CC1 (centres unmarked) [Example 23, 4-(8-((4-(Difluoromethoxy)phenyl)sulfonyl)-8-azaspiro[4.5]decan-2-yl)morpholine] |
| 250 to 1500 | Cn1nc2c(c1S(=O)(=O)N1CCC3(CCC(N4CCOCC4)C3)CC1)COCC2 (centres unmarked) [Example 24, 2-Methyl-3-((2-morpholino-8-azaspiro[4.5]decan-8-yl)sulfonyl)-2,4,6,7-tetrahydropyrano[4,3-c]pyrazole] |

| IC50 [nM] | Compound |
| --- | --- |
| 100 to 250 | Cc1cnc(S(=O)(=O)N2CCC3(CCC(N4CCOCC4)C3)CC2)c(C)c1 (centres unmarked) [Example 25, 4-(8-((3,5-Dimethylpyridin-2-yl)sulfonyl)-8-azaspiro[4.5]decan-2-yl)morpholine] |
| < 100 | COc1cc(S(=O)(=O)N2CCC3(CCC(N4CCOCC4)C3)CC2)n(C)n1 (centres unmarked) [Example 26, 4-(8-((3-Methoxy-1-methyl-1H-pyrazol-5-yl)sulfonyl)-8-azaspiro[4.5]decan-2-yl)morpholine] |
| < 100 | O=S(=O)(c1ccc(OC(F)F)cc1)N1CCC2(CCC(N3C[C@H]4C[C@@H]3CO4)C2)CC1 (stereo partly drawn) [Example 27, (1R,4R)-5-(8-((4-(Difluoromethoxy)phenyl)sulfonyl)-8-azaspiro[4.5]decan-2-yl)-2-oxa-5-azabicyclo[2.2.1]heptane] |
| 250 to 1500 | Cc1cc(C)c(S(=O)(=O)N2CCC3(CC2)CC(N2CCC4(CCOC4)C2)CO3)cn1 (centres unmarked) [Example 28, 8-((4,6-Dimethylpyridin-3-yl)sulfonyl)-3-(2-oxa-7-azaspiro[4.4]nonan-7-yl)-1-oxa-8-azaspiro[4.5]decane] |
| 250 to 1500 | Cc1cc(S(=O)(=O)N2CCC3(CC2)CC(N2CCC4(CCOC4)C2)CO3)n(C)n1 (centres unmarked) [Example 29, 8-((1,3-Dimethyl-1H-pyrazol-5-yl)sulfonyl)-3-(2-oxa-7-azaspiro[4.4]nonan-7-yl)-1-oxa-8-azaspiro[4.5]decane] |
| 100 to 250 | O=S(=O)(c1cc2cccnc2cc1F)N1CCC2(CCC(N3CCOCC3)C2)CC1 (centres unmarked) [Example 31, 4-(8-((7-fluoroquinolin-6-yl)sulfonyl)-8-azaspiro[4.5]decan-2-yl)morpholine] |
| 250 to 1500 | O=S(=O)(c1ccc(OC2CC2)cn1)N1CCC2(CCC(N3CCOCC3)C2)CC1 (centres unmarked) [Example 32, 4-(8-((5-Cyclopropoxypyridin-2-yl)sulfonyl)-8-azaspiro[4.5]decan-2-yl)morpholine] |
| < 100 | COc1nccc(S(=O)(=O)N2CCC3(CCC(N4CCOCC4)C3)CC2)c1F (centres unmarked) [Example 33, 4-(8-((3-Fluoro-2-methoxypyridin-4-yl)sulfonyl)-8-azaspiro[4.5]decan-2-yl)morpholine] |
| 100 to 250 | COCCN(C)C1CCC2(CCN(S(=O)(=O)c3cc(C)cnc3OC)CC2)C1 (centres unmarked) [Example 40] |
| 100 to 250 | COc1ncc(C)cc1S(=O)(=O)N1CCC2(CCC(NC3(C)COC3)C2)CC1 (centres unmarked) [Example 41] |
| < 100 | COc1ncc(C)cc1S(=O)(=O)N1CCC2(CCC(NC3(C)CCOC3)C2)CC1 (centres unmarked) [Example 42] |
| < 100 | COc1ncc(C)cc1S(=O)(=O)N1CCC2(CCC(N3CC4(CCOC4)C3)C2)CC1 (centres unmarked) [Example 43] |
| 250 to 1500 | COCCNC1COC2(CCN(S(=O)(=O)c3cc(C#N)ccc3F)CC2)C1 (centres unmarked) [Example 44, 4-Fluoro-3-((3-((2-methoxyethyl)amino)-1-oxa-8-azaspiro[4.5]decan-8-yl)sulfonyl)benzonitrile] |
| 250 to 1500 | N#Cc1ccc(F)c(S(=O)(=O)N2CCC3(CC2)CC(N2C[C@H]4C[C@@H]2CO4)CO3)c1 (stereo partly drawn) [Example 45, 3-((3-((1R,4R)-2-oxa-5-azabicyclo[2.2.1]heptan-5-yl)-1-oxa-8-azaspiro[4.5]decan-8-yl)sulfonyl)-4-fluorobenzonitrile] |
| 250 to 1500 | N#Cc1ccc(F)c(S(=O)(=O)N2CCC3(CC2)CC(N2CC4(COC4)C2)CO3)c1 (centres unmarked) [Example 46, 3-((3-(2-Oxa-6-azaspiro[3.3]heptan-6-yl)-1-oxa-8-azaspiro[4.5]decan-8-yl)sulfonyl)-4-fluorobenzonitrile] |
| 100 to 250 | N#Cc1ccc(F)c(S(=O)(=O)N2CCC3(CC2)CC(N2CCCCC2)CO3)c1 (centres unmarked) [Example 47, 4-Fluoro-3-((3-(piperidin-1-yl)-1-oxa-8-azaspiro[4.5]decan-8-yl)sulfonyl)benzonitrile] |
| 100 to 250 | N#Cc1ccc(F)c(S(=O)(=O)N2CCC3(CC2)CC(NC2CCC(F)(F)CC2)CO3)c1 (centres unmarked) [Example 48, 3-((3-((4,4-Difluorocyclohexyl)amino)-1-oxa-8-azaspiro[4.5]decan-8-yl)sulfonyl)-4-fluorobenzonitrile] |

From patent US20250152574A1 (BIOGEN MA INC., priority 2022, published 2025)
